Source: PubChem BioAssay AID1963861 (Molecular Pharmacology Branch, DTP, NCI, 2024)
pIC50: −log10 of the molar value.

Tested on: 885724-159-R-J1-PDC KRAS PDC multicell spheroid viability
Assay: Anticancer human tumor 885724-159-R-J1-PDC patient-derived pancreatic adenocarcinoma cell line growth inhibition [KRAS2]
Settings: for pIC50: curve of first compound; for viability, T/C: stronger effect = lower value
Procedure, shortened: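 Combination screen of spheroid viability in tumor-cell co-cultures with endothelial (HUVEC) and mesenchymal stem cell stroma. Each agent was tested in half-log dilutions, topping at clinical Cmax or at 10 microM without a known Cmax.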

[1] = second compound 0.1 µM, first compound 0.0316 µM
[2] = second compound 0.1 µM, first compound 0.1 µM
[3] = second compound 0.1 µM, first compound 0.316 µM
[4] = second compound 0.1 µM, first compound 1 µM
[5] = second compound 0.1 µM, first compound 3.16 µM
[6] = second compound 0.1 µM, first compound 10 µM
[7] = second compound 0.316 µM, first compound 0.0316 µM
[8] = second compound 0.316 µM, first compound 0.1 µM
[9] = second compound 0.316 µM, first compound 0.316 µM
[10] = second compound 0.316 µM, first compound 1 µM
[11] = second compound 0.316 µM, first compound 3.16 µM
[12] = second compound 0.316 µM, first compound 10 µM
[13] = second compound 1 µM, first compound 0.0316 µM
[14] = second compound 1 µM, first compound 0.1 µM
[15] = second compound 1 µM, first compound 0.316 µM
[16] = second compound 1 µM, first compound 1 µM
[17] = second compound 1 µM, first compound 3.16 µM
[18] = second compound 1 µM, first compound 10 µM
[19] = second compound 3.16 µM, first compound 0.0316 µM
[20] = second compound 3.16 µM, first compound 0.1 µM
[21] = second compound 3.16 µM, first compound 0.316 µM
[22] = second compound 3.16 µM, first compound 1 µM
[23] = second compound 3.16 µM, first compound 3.16 µM
[24] = second compound 3.16 µM, first compound 10 µM
[25] = second compound 10 µM, first compound 0.0316 µM
[26] = second compound 10 µM, first compound 0.1 µM
[27] = second compound 10 µM, first compound 0.316 µM
[28] = second compound 10 µM, first compound 1 µM
[29] = second compound 10 µM, first compound 3.16 µM
[30] = second compound 10 µM, first compound 10 µM
[31] = second compound 0.1 µM, first compound 0.00316 µM
[32] = second compound 0.1 µM, first compound 0.01 µM
[33] = second compound 0.316 µM, first compound 0.00316 µM
[34] = second compound 0.316 µM, first compound 0.01 µM
[35] = second compound 1 µM, first compound 0.00316 µM
[36] = second compound 1 µM, first compound 0.01 µM
[37] = second compound 3.16 µM, first compound 0.00316 µM
[38] = second compound 3.16 µM, first compound 0.01 µM
[39] = second compound 10 µM, first compound 0.00316 µM
[40] = second compound 10 µM, first compound 0.01 µM
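Further: spheroids exposed to agents for 7 days before readout.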

Compound	pIC50 (second compound 0.1 µM)	pIC50 (second compound 0.316 µM)	pIC50 (second compound 1 µM)	pIC50 (second compound 3.16 µM)	pIC50 (second compound 10 µM)	viability, T/C [1] [%]	viability, T/C [2] [%]	viability, T/C [3] [%]	viability, T/C [4] [%]	viability, T/C [7] [%]	viability, T/C [8] [%]	viability, T/C [9] [%]	viability, T/C [10] [%]	viability, T/C [13] [%]	viability, T/C [14] [%]	viability, T/C [15] [%]	viability, T/C [19] [%]	viability, T/C [20] [%]	viability, T/C [25] [%]	viability, T/C [26] [%]	also measured
CC(C)NCC(C(=O)N1CCN(c2ncnc3c2C(C)CC3O)CC1)c1ccc(Cl)cc1 (stereo not given) + COc1cc2nc(C)nc(NC(C)c3cc(N)cc(C(F)(F)F)c3)c2cc1OC1CCOC1	< 5.00	< 5.00	< 5.00	5.08	> 7.50	86.3	77.1	75.7	71.6	88.8	87.2	70.5	70.3	86.4	77.5	69.1	76.7	72.3	39.2	37.5	viability, T/C [5]: 74.6%; viability, T/C [6]: 56.8%; viability, T/C [11]: 75.7%; viability, T/C [12]: 57.7%; viability, T/C [16]: 70.8%; viability, T/C [17]: 71.6%; viability, T/C [18]: 56.4%; viability, T/C [21]: 66%; viability, T/C [22]: 71.3%; viability, T/C [23]: 76.9%; viability, T/C [24]: 45.8%; viability, T/C [27]: 26.9%; viability, T/C [28]: 20.8%; viability, T/C [29]: 11.5%; viability, T/C [30]: 6.18%
CCN1CCN(Cc2ccc(Nc3ncc(F)c(-c4cc(F)c5nc(C)n(C(C)C)c5c4)n3)nc2)CC1 + COc1cc2nc(C)nc(NC(C)c3cc(N)cc(C(F)(F)F)c3)c2cc1OC1CCOC1	< 6.00	< 6.00	< 6.00	< 6.00	> 8.50	84.2	80.7	80.7	86.1	79.9	79	75.2	76.6	78.6	73.2	72.4	76	63	28.3	36.6	viability, T/C [31]: 88.8%; viability, T/C [32]: 89.7%; viability, T/C [33]: 96.3%; viability, T/C [34]: 86.2%; viability, T/C [35]: 90%; viability, T/C [36]: 86.9%; viability, T/C [16]: 80.8%; viability, T/C [37]: 80.3%; viability, T/C [38]: 91.6%; viability, T/C [21]: 71.5%; viability, T/C [22]: 73.1%; viability, T/C [39]: 38.2%; viability, T/C [40]: 35.9%; viability, T/C [27]: 17.6%; viability, T/C [28]: 7.18%
CCNC(=O)CC1N=C(c2ccc(Cl)cc2)c2cc(OC)ccc2-n2c(C)nnc21 (stereo not given) + COc1cc2nc(C)nc(NC(C)c3cc(N)cc(C(F)(F)F)c3)c2cc1OC1CCOC1	5.63	5.51	5.60	6.02	> 7.50	99.4	91.5	75.2	53.8	101	89.6	76.4	57	95.9	94.4	72	94.6	99.6	34.8	22.4	viability, T/C [5]: 50%; viability, T/C [6]: 45.7%; viability, T/C [11]: 51.7%; viability, T/C [12]: 44.8%; viability, T/C [16]: 55.9%; viability, T/C [17]: 49.1%; viability, T/C [18]: 46.9%; viability, T/C [21]: 69.1%; viability, T/C [22]: 54.3%; viability, T/C [23]: 47.8%; viability, T/C [24]: 44.6%; viability, T/C [27]: 16.5%; viability, T/C [28]: 14.1%; viability, T/C [29]: 20.1%; viability, T/C [30]: 12.4%
Cn1ncnc1[C@H]1c2n[nH]c(=O)c3cc(F)cc(c23)N[C@@H]1c1ccc(F)cc1 + COc1cc2nc(C)nc(NC(C)c3cc(N)cc(C(F)(F)F)c3)c2cc1OC1CCOC1	< 7.00	< 7.00	< 7.00	< 7.00	> 9.50	92.1	93.4			94.5	91.3			102	85.5		94.3	83.1	34.2	30.4	viability, T/C (second compound 0.1 µM, first compound 0.000316 µM): 104%; viability, T/C (second compound 0.1 µM, first compound 0.001 µM): 101%; viability, T/C [31]: 102%; viability, T/C [32]: 96.2%; viability, T/C (second compound 0.316 µM, first compound 0.000316 µM): 96.3%; viability, T/C (second compound 0.316 µM, first compound 0.001 µM): 102%; viability, T/C [33]: 98.6%; viability, T/C [34]: 98.3%; viability, T/C (second compound 1 µM, first compound 0.000316 µM): 98.2%; viability, T/C (second compound 1 µM, first compound 0.001 µM): 96.5%; viability, T/C [35]: 92.4%; viability, T/C [36]: 94.3%; viability, T/C (second compound 3.16 µM, first compound 0.000316 µM): 91.8%; viability, T/C (second compound 3.16 µM, first compound 0.001 µM): 97.9%; viability, T/C [37]: 90.5%; viability, T/C [38]: 88.5%; viability, T/C (second compound 10 µM, first compound 0.000316 µM): 42.1%; viability, T/C (second compound 10 µM, first compound 0.001 µM): 44.8%; viability, T/C [39]: 20.7%; viability, T/C [40]: 48.3%
